Measurements reported in US8252723B2, “Substituted 1-(3-pyridinyl)pyrazol-4-ylacetic acids, processes for their preparation and their use as herbicides and plant growth regulators” (Bayer CropScience AG, priority 2006, dated 2012).

Test system: summer wheat of the cultivar 'Triso'
Assay: Plant growth regulation test: culm stabilization of crop plants
Assay type: in vivo
Settings: application rate of 30 to 300 g of active substance per hectare, treated at stage BBCH 31, culm length measured after ears had formed
Protocol: With stirring, the compound of the formula (I) in question was, in the form of a water-dispersible powder, together with a surfactant (customary adjuvant at an application rate of 1 l/ha), mixed with water such that a homogenous spray liquor was formed, and applied at an application rate of 300 l of water/ha (converted).
Seeds of summer wheat of the cultivar ‘Triso’ were sown at a depth of 1 cm in plant pots and cultivated outdoors until treatment.
The plants were treated on a laboratory track sprayer with spray liquors of the test substances at macrostage 3 after having reached about 10% of the maximum longitudinal growth typical for the cultivar (stage BBCH 31) and, after the treatment, returned outdoors.
After the ears had formed, the length of the culms were measured. The culm stabilization was evaluated as a percentage of the untreated control.

`COC(=O)Cc1c(C)nn(-c2cccnc2)c1-c1ccc(C(F)(F)F)cn1` [Example 2-144] was tested, and the “longitudinal growth (culm length) of summer wheat” value (from here on “longitudinal growth (culm length)”) was “effectively shortened”.

`COC(=O)Cc1c(C)nn(-c2cnccc2Cl)c1-c1ccc(Cl)cc1` [Example 2-29] was tested, and the “longitudinal growth (culm length)” value was “effectively shortened”.

With `COC(=O)Cc1c(C)nn(-c2cnccc2C)c1-c1ccc(C(C)(C)C)cc1` [Example 2-32] the “longitudinal growth (culm length)” value was “effectively shortened”.

`CCCOC(=O)Cc1c(C)nn(-c2cccnc2)c1-c1ccccn1` [Example 3-34] was tested, and the “longitudinal growth (culm length)” value was “effectively shortened”.

For `Cc1ccc(-n2nc(C)c(CC(=O)O)c2-c2ccccc2)c(C)n1` [Example 1-11], the “longitudinal growth (culm length)” value was “effectively shortened”.

For `C#CCOC(=O)Cc1c(C)nn(-c2cccnc2)c1-c1ccc(F)cc1` [Example 3-68], the “longitudinal growth (culm length)” value was “effectively shortened”.

`Cc1nn(-c2cccnc2)c(-c2ccc(C(=O)O)cc2)c1CC(=O)O` [Example 1-42] was tested, and the “longitudinal growth (culm length)” value was “effectively shortened”.

For `Cc1nn(-c2cccnc2)c(-c2ccc(Cl)c(C(F)(F)F)c2)c1CC(=O)O` [Example 1-47], the “longitudinal growth (culm length)” value was “effectively shortened”.

`Cc1ccncc1-n1nc(C)c(CC(=O)O)c1-c1ccc(Cl)cc1` [Example 1-25] was tested, and the “longitudinal growth (culm length)” value was “effectively shortened”.

With `Cc1nn(-c2cnccc2[S+](C)[O-])c(-c2ccc(Cl)cc2)c1CC(=O)O` (centres unmarked) [Example 1-64] the “longitudinal growth (culm length)” value was “effectively shortened”.

In the case of `C=C(Cl)COC(=O)Cc1c(C)nn(-c2cccnc2)c1-c1ccc(Cl)s1` [Example 3-190], the “longitudinal growth (culm length)” value was “effectively shortened”.

For `Cc1nn(-c2cccnc2)c(-c2ccc(Cl)s2)c1CC(=O)O` [Example 1-60], the “longitudinal growth (culm length)” value was “effectively shortened”.

For `Cc1ccncc1-n1nc(C)c(CC(=O)O)c1-c1ccc(Cl)c(Cl)c1` [Example 1-20], the “longitudinal growth (culm length)” value was “effectively shortened”.

`Cc1ccncc1-n1nc(C)c(CC(=O)O)c1-c1ccc(-c2ccccc2)cc1` [Example 1-41] was tested, and the “longitudinal growth (culm length)” value was “effectively shortened”.

With `C#CCOC(=O)Cc1c(C)nn(-c2cccnc2)c1-c1ccccc1` [Example 3-54] the “longitudinal growth (culm length)” value was “effectively shortened”.

For `COC(=O)Cc1c(C)nn(-c2cccnc2)c1-c1cccnc1` [Example 2-125], the “longitudinal growth (culm length)” value was “effectively shortened”.

`Cc1nn(-c2cccnc2)c(-c2ccc(F)cc2)c1CC(=O)O` [Example 1-120] was tested, and the “longitudinal growth (culm length)” value was “effectively shortened”.

For `COC(=O)Cc1cnn(-c2cccnc2)c1-c1ccccc1` [Example 2-72], the “longitudinal growth (culm length)” value was “effectively shortened”.

`COC(=O)Cc1c(C)nn(-c2cccnc2)c1-c1cc(C)cs1` [Example 2-59] was tested, and the “longitudinal growth (culm length)” value was “effectively shortened”.

`Cc1nn(-c2cccnc2)c(-c2ccccc2)c1CC(=O)OCC(F)=C(Cl)Cl` [Example 3-101] was tested, and the “longitudinal growth (culm length)” value was “effectively shortened”.

In the case of `Cc1nn(-c2cccnc2)c(-c2ccc(O)nc2)c1CC(=O)O` [Example 1-70], the “longitudinal growth (culm length)” value was “effectively shortened”.

For `COC(=O)Cc1c(C)nn(-c2cccnc2)c1-c1ccc(C)nc1` [Example 2-128], the “longitudinal growth (culm length)” value was “effectively shortened”.

For `Cc1csc(-c2c(CC(=O)O)c(C)nn2-c2cccnc2)c1` [Example 1-59], the “longitudinal growth (culm length)” value was “effectively shortened”.

For `Cc1nn(-c2cccnc2)c(-c2ccc(Cl)c(Cl)c2)c1CC(=O)O` [Example 1-27], the “longitudinal growth (culm length)” value was “effectively shortened”.

In the case of `Cc1nn(-c2cccnc2)c(-c2ccccn2)c1CC(=O)OC(C)C` [Example 3-48], the “longitudinal growth (culm length)” value was “effectively shortened”.

With `COC(=O)Cc1c(C)nn(-c2cccnc2)c1-c1ccc(Cl)c(Cl)c1` [Example 2-27] the “longitudinal growth (culm length)” value was “effectively shortened”.

In the case of `COc1ccc(-c2c(CC(=O)O)c(C)nn2-c2cccnc2)cc1` [Example 1-14], the “longitudinal growth (culm length)” value was “effectively shortened”.

`C=C(Cl)COC(=O)Cc1c(C)nn(-c2cccnc2)c1-c1ccsc1` [Example 3-187] was tested, and the “longitudinal growth (culm length)” value was “effectively shortened”.

With `Cc1cncc(-n2nc(C)c(CC(=O)O)c2-c2ccc(Cl)cc2)c1` [Example 1-51] the “longitudinal growth (culm length)” value was “effectively shortened”.

For `COc1ccc(-c2c(CC(=O)OCC3CC3)c(C)nn2-c2cccnc2)cn1` [Example 3-86], the “longitudinal growth (culm length)” value was “effectively shortened”.

In the case of `COC(=O)Cc1c(C)nn(-c2cnccc2C)c1-c1ccc(F)cc1` [Example 2-37], the “longitudinal growth (culm length)” value was “effectively shortened”.

With `C#CC(C)OC(=O)Cc1c(C)nn(-c2cccnc2)c1-c1ccccc1` (centres unmarked) [Example 3-140] the “longitudinal growth (culm length)” value was “effectively shortened”.

With `C=C(Cl)COC(=O)Cc1c(C)nn(-c2cccnc2)c1-c1ccc(F)cc1` [Example 3-198] the “longitudinal growth (culm length)” value was “effectively shortened”.

`COC(=O)Cc1c(C)nn(-c2cccnc2)c1-c1ccncc1` [Example 2-126] was tested, and the “longitudinal growth (culm length)” value was “effectively shortened”.

With `Cc1nn(-c2ccc(Cl)nc2Cl)c(-c2ccccc2)c1CC(=O)O` [Example 1-12] the “longitudinal growth (culm length)” value was “effectively shortened”.

With `Cc1ccncc1-n1nc(C)c(CC(=O)OCC2CC2)c1-c1ccc(Cl)cc1` [Example 3-98] the “longitudinal growth (culm length)” value was “effectively shortened”.

`C=C(Cl)COC(=O)Cc1c(C)nn(-c2cccnc2)c1-c1ccc(OC)nc1` [Example 3-193] was tested, and the “longitudinal growth (culm length)” value was “effectively shortened”.

In the case of `Cc1ccnc(-c2c(CC(=O)O)c(C)nn2-c2cccnc2)c1` [Example 1-136], the “longitudinal growth (culm length)” value was “effectively shortened”.

In the case of `C=C(Cl)COC(=O)Cc1c(C)nn(-c2cccnc2)c1-c1ccccc1` [Example 3-184], the “longitudinal growth (culm length)” value was “effectively shortened”.

`Cc1csc(-c2c(CC(=O)OCC3CC3)c(C)nn2-c2cccnc2)c1` [Example 3-85] was tested, and the “longitudinal growth (culm length)” value was “effectively shortened”.

With `COC(=O)Cc1c(C)nn(-c2ccc(Cl)nc2)c1-c1ccccc1` [Example 2-7] the “longitudinal growth (culm length)” value was “effectively shortened”.

For `Cc1nn(-c2cccnc2)c(-c2ccccc2)c1CC(=O)OC(C)C` [Example 3-36], the “longitudinal growth (culm length)” value was “effectively shortened”.

`Cc1nn(-c2cccnc2)c(-c2ccccn2)c1CC(=O)OCC1CCCO1` (centres unmarked) [Example 3-230] was tested, and the “longitudinal growth (culm length)” value was “effectively shortened”.

In the case of `Cc1ccncc1-n1nc(C)c(CC(=O)O)c1-c1cccc(Br)c1` [Example 1-40], the “longitudinal growth (culm length)” value was “effectively shortened”.

In the case of `Cc1nn(-c2cccnc2)c(-c2ccccc2)c1CC(=O)OCC#Cc1ccccc1` [Example 3-164], the “longitudinal growth (culm length)” value was “effectively shortened”.

In the case of `COC(=O)Cc1c(C)nn(-c2cccnc2)c1-c1ccc(C)c(Cl)c1` [Example 2-46], the “longitudinal growth (culm length)” value was “effectively shortened”.

In the case of `O=C(Cc1cnn(-c2cccnc2)c1-c1ccccc1)OCC1CC1` [Example 3-100], the “longitudinal growth (culm length)” value was “effectively shortened”.

In the case of `COC(=O)Cc1c(C)nn(-c2cnccc2C)c1-c1cc(C)cc(C)c1` [Example 2-33], the “longitudinal growth (culm length)” value was “effectively shortened”.

In the case of `COc1ccc(-c2c(CC(=O)O)c(C)nn2-c2cnccc2C)cc1` [Example 1-13], the “longitudinal growth (culm length)” value was “effectively shortened”.

For `CC#CCOC(=O)Cc1c(C)nn(-c2cccnc2)c1-c1ccccn1` [Example 3-136], the “longitudinal growth (culm length)” value was “effectively shortened”.

For `COC(=O)Cc1c(C)nn(-c2cccnc2)c1-c1ccc(Cl)c(C)c1` [Example 2-123], the “longitudinal growth (culm length)” value was “effectively shortened”.

For `COC(=O)Cc1c(C)nn(-c2ccc(Cl)nc2Cl)c1-c1ccccc1` [Example 2-12], the “longitudinal growth (culm length)” value was “effectively shortened”.

For `COC(=O)Cc1c(C)nn(-c2cnccc2Cl)c1-c1ccccc1` [Example 2-30], the “longitudinal growth (culm length)” value was “effectively shortened”.

`COC(=O)Cc1c(C2CC2)nn(-c2cccnc2)c1-c1ccc(Cl)cc1` [Example 2-146] was tested, and the “longitudinal growth (culm length)” value was “effectively shortened”.

In the case of `Cc1ccncc1-n1nc(C)c(CC(=O)O)c1-c1ccc(C(=O)O)cc1` [Example 1-39], the “longitudinal growth (culm length)” value was “effectively shortened”.

`C#CCOC(=O)Cc1c(C)nn(-c2cccnc2)c1-c1ccccn1` [Example 3-73] was tested, and the “longitudinal growth (culm length)” value was “effectively shortened”.

`Cc1nn(-c2cccnc2)c(-c2ccco2)c1CC(=O)O` [Example 1-4] was tested, and the “longitudinal growth (culm length)” value was “effectively shortened”.

In the case of `COC(=O)Cc1c(C)nn(-c2cccnc2)c1-c1ccc(OC)cc1` [Example 2-14], the “longitudinal growth (culm length)” value was “effectively shortened”.

With `Cc1cccc(-c2c(CC(=O)O)c(C)nn2-c2cnccc2C)c1` [Example 1-38] the “longitudinal growth (culm length)” value was “effectively shortened”.

`COC(=O)Cc1c(C)nn(-c2cnccc2C)c1-c1cccc(Cl)c1Cl` [Example 2-131] was tested, and the “longitudinal growth (culm length)” value was “effectively shortened”.

In the case of `Cc1ccncc1-n1nc(C)c(CC(=O)O)c1-c1ccc(C(F)(F)F)cc1` [Example 1-24], the “longitudinal growth (culm length)” value was “effectively shortened”.

`COC(=O)Cc1c(C)nn(-c2cccnc2)c1-c1sccc1C` [Example 2-58] was tested, and the “longitudinal growth (culm length)” value was “effectively shortened”.

With `COC(=O)Cc1c(C)nn(-c2cccnc2)c1-c1cc(C)cc(C)c1` [Example 2-43] the “longitudinal growth (culm length)” value was “effectively shortened”.

`CSc1ccncc1-n1nc(C)c(CC(=O)O)c1-c1ccc(Cl)cc1` [Example 1-45] was tested, and the “longitudinal growth (culm length)” value was “effectively shortened”.

`COC(=O)Cc1c(C)nn(-c2cnccc2C)c1-c1ccc(Cl)cc1` [Example 2-25] was tested, and the “longitudinal growth (culm length)” value was “effectively shortened”.
